For series [1], the system named is rat. The series can be described thus: Rat tail flick model (focused radiant heat). Type of series: in vivo. The conditions noted are these: for change in vivo at 20 mg/kg: Rattus norvegicus, po, read-out: increase (%) of tail flick time; for change in vivo at 20 mg/kg / After (s) tail flick time: orally 20 mg/kg; for After (s) tail flick time: 30-45 minutes after administration; for Increase (tail flick) (%): 20 mg/kg, Table 5 summary. The protocol:
A 8.75 mm-projecting lamp (12 v, 50 w) was used to give out focused radiant heat. The terminal 3 cm of the tail is exposed to the heat. The intensity of the focused radiant heat is regulated by a transformer to ensure that the time required to elicit a tail flick response is within 3-5 seconds. The rat's pain threshold is pre-tested for 2-3 times; and only animals with stable reactions were used in the pharmaceutical test. The test substance is taken orally 20 mg/kg. The number of rats whose increase in time for eliciting a tail flick response is by 100% or more at the peak of the drug action (30-45 minutes after administration) is used to calculate analgesic effect.
(§1) Two species of animals (mice and rats) and four types of pain testing models (i.p. 0.7% acetic acid, s.c. 5% formalin, hot plate 55° C., focused radiant heat) were used.

Series [2] concerns Kunming mice. Nature of the series: Sedation: spontaneous activities recorded with alternating current tube. Type of series: in vivo. The conditions noted are these: for inhibition in vivo at 20 mg/kg: Mus musculus, ip, i.p. 20 mg/Kg, spontaneous activities; for Sedation (writhing model): 20 mg/kg, Table 5 summary. The protocol: Kunming mice were used, with a male-female ratio of 50-50%. […] After 30 minutes, acetic acid (0.7%, […] i.p.) was injected and the number of writhes was observed during a 5-minute period after acetic acid administration. The inhibition ratio of the writhing threshold was calculated. The alternating current tube is used to record the spontaneous activities for measuring sedation.
A general note: In writhing tests, fewer writhes than in controls are read as antinociception.

The test system of series [3] is Kunming mice. The series can be described thus: Mice writhing model (acetic acid). Type of series: in vivo. The conditions noted are these: for inhibition in vivo at 20 mg/kg: Mus musculus, ip, i.p. 20 mg/Kg, acetic acid 0.7% i.p. after 30 minutes, writhes in 5 minutes, read-out: Analgesia (inhibition ratio of writhing); for Writhing (K i): 20 mg/kg, Table 5 summary. On the procedure:
Kunming mice were used, with a male-female ratio of 50-50%. The test compound is administered i.p. (20 mg/Kg body weight) to the test groups, and physiological saline is administered P.O. (20 ml/Kg body weight) to the control group. After 30 minutes, acetic acid (0.7%, […] i.p.) was injected and the number of writhes was observed during a 5-minute period after acetic acid administration. The inhibition ratio of the writhing threshold was calculated. The alternating current tube is used to record the spontaneous activities for measuring sedation.
as §1

The subject of series [4] is rat. Nature of the series: animal or person. The following applies: for responders at 20 mg/kg: Rattus norvegicus, ip; for Increase (hot plate) (%): 20 mg/kg, Table 5 summary. The protocol:
Using 55° C. hot plate pain threshold detector (available from Ninghai Baishi Electronic Medical Instrument Co., Zheijiang, China) the threshold change before and after administration of a pharmaceutical composition of the present invention is tested. […] hind paw was scrubbed with alcohol cotton ball before the experiment. The regular pain threshold was tested twice for each rat, the induced hind paw licking time being recorded as the pain threshold. Measurements were made at 20-30 minute intervals. Only rats with stable pain reaction were used in the pharmaceutical test.
as §1

A short description of series [5]: Summary of all three algogenic models. Type of series: in vivo. The conditions noted are these: in words. The text has this: All the compounds mentioned above have profound for further value development.
The mark [6] stands for this setting: read-out: Analgesic ratio (Increase by 100%).
The mark [7] stands for this setting: read-out: Analgesic ratio (More than 60 seconds).

From patent US7332495B2 (priority 2002, dated 2008) come the findings set out here.

Read-outs that look alike come from different tables or passages of the source.

`COc1ccc(CN2CCN(CC(=O)c3ccccc3)CC2)cc1` [IV-10, N^1-(4-methoxybenzyl)-N^4-phenacyl piperazine]: the change in vivo at 20 mg/kg in the series with rat [1] was 9.4%. Further, the “After (s) tail flick time” value with rat [1] was determined as 8.81 s. Also, the inhibition in vivo at 20 mg/kg was found to be 99% in the series with Kunming mice [2] and 100% in the series with Kunming mice [3]. Besides, the results for the responders at 20 mg/kg in the series with rat [4] (setting [6]) and in the series with rat [4] (setting [7]) were 90% and 70%, respectively.

Consider `O=C(CN1CCN(CCc2ccccc2)CC1)c1ccccc1` [IV-14, N^1-phenethyl-N^4-phenacyl piperazine], for which, in series [5], the “Analgesic effect on all three algogenic models” value is on record as “powerful analgesic effects” and the “Sedative effect on all three algogenic models” value is “rather significant sedative effect”. In addition, in the series with rat [1], the “Increase (tail flick) (%)” value was 37.9%, the change in vivo at 20 mg/kg came out at 37.9% and the “After (s) tail flick time” value stood at 10.62 s. In addition, in the series with Kunming mice [2], the “Sedation (writhing model)” value came to 92 and the inhibition in vivo at 20 mg/kg was determined as 92%. For the same compound, in the series on Kunming mice [3], the “Writhing (K i)” value is given as 94 and the inhibition in vivo at 20 mg/kg was 94%. Further, the “Increase (hot plate) (%)” value in the series on rat [4] was determined as 100%. Moreover, the responders at 20 mg/kg in the series on rat [4] (setting [6]) was 100%. For the same compound, the responders at 20 mg/kg in the series with rat [4] (setting [7]) is 70%.

`O=C(CN1CCN(Cc2ccc3c(c2)OCO3)CC1)c1ccccc1` [IV-19, N^1-(3,4-methylenedioxybenzyl)-N^4-phenacyl piperazine]: the change in vivo at 20 mg/kg in the series with rat [1] stood at 6.7%. Besides, in the series with rat [1], the “After (s) tail flick time” value is 8.58 s. The inhibition in vivo at 20 mg/kg came to 93% in the series on Kunming mice [2] and 97% with Kunming mice [3]. For the same compound, the responders at 20 mg/kg worked out at 70% in the series with rat [4] (setting [6]) and 50% in the series with rat [4] (setting [7]).

For the compound `CC(=O)Nc1ccc(CN2CCN(CC(=O)c3ccccc3)CC2)cc1` [IV-21, N^1-(4-acetamidobenzyl)-N^4-phenacyl piperazine], in the series on rat [1], the “Increase (tail flick) (%)” value was determined as 28%, the change in vivo at 20 mg/kg was found to be 28% and the “After (s) tail flick time” value is on record as 9.72 s. Further, in the series on Kunming mice [2], the “Sedation (writhing model)” value amounted to 92 and the inhibition in vivo at 20 mg/kg is 92%. For the same compound, in the series on Kunming mice [3], the “Writhing (K i)” value is reported as 100 and the inhibition in vivo at 20 mg/kg worked out at 100%. Further, in the series on rat [4], the “Increase (hot plate) (%)” value turned out to be 100%. Moreover, in the series with rat [4] (setting [6]), the responders at 20 mg/kg worked out at 100%. In addition, in the series with rat [4] (setting [7]), the responders at 20 mg/kg came to 50%.

For `COc1cccc(CN2CCN(CC(=O)c3ccccc3)CC2)c1` [IV-25, N^1-(3-methoxybenzyl)-N^4-phenacyl piperazine], in the series on rat [1], the change in vivo at 20 mg/kg was determined as 12%. Further, the “After (s) tail flick time” value with rat [1] is reported as 8.37 s. Moreover, the inhibition in vivo at 20 mg/kg with Kunming mice [2] is 88%; in the series on Kunming mice [3], 100%. Moreover, the results for the responders at 20 mg/kg with rat [4] (setting [6]) and in the series on rat [4] (setting [7]) were 40% and 10%, respectively.

`Cc1ccc(C(=O)CN2CCN(C(C)c3ccc([N+](=O)[O-])cc3)CC2)cc1` (stereo not shown) [IV-27, N^1-[1-(4-nitrophenyl)ethyl]-N^4-(4-methylphenacyl)piperazine]: in the series on rat [1], the change in vivo at 20 mg/kg amounted to 9.2%. In the series with rat [1], the “After (s) tail flick time” value is 9.37 s. Besides, the values for the inhibition in vivo at 20 mg/kg with Kunming mice [2] and in the series with Kunming mice [3] were 74% and 57%, respectively. For the same compound, the responders at 20 mg/kg in the series with rat [4] (setting [6]) turned out to be 20%; in the series on rat [4] (setting [7]), 0%. For the same compound, in the series on rat [4] (i.p. 20 mg/Kg), the Excitement entry is “no”. Further, the Sedation entry in the series with rat [4] (i.p. 20 mg/Kg, grade symbols, key not given) is recorded as “no”.

Consider `CC(c1ccccc1)N1CCN(CC(=O)c2ccccc2)CC1` (stereo not shown) [IV-37, N^1-(1-phenylethyl)-N^4-phenacyl piperazine], for which the change in vivo at 20 mg/kg in the series on rat [1] came out at 25%. For the same compound, the “After (s) tail flick time” value with rat [1] was determined as 10.54 s. The inhibition in vivo at 20 mg/kg in the series on Kunming mice [2] worked out at 90.1%; in the series with Kunming mice [3], 100%. Moreover, the responders at 20 mg/kg with rat [4] (setting [6]) and in the series with rat [4] (setting [7]) was 100% in each case.

With `Cc1ccc(C(=O)CN2CCN(C(C)c3ccccc3)CC2)cc1` (stereo not shown) [IV-40, N^1-(1-phenylethyl)-N^4-(4-methylphenacyl)piperazine], in the series on rat [1], the change in vivo at 20 mg/kg amounted to 8% and the “After (s) tail flick time” value is on record as 7.88 s. The responders at 20 mg/kg with rat [4] (setting [6]) is 10%. Also, in the series with rat [4] (setting [7]), the responders at 20 mg/kg was found to be 10%.
